Assay results from patent publication US4006241A, “Certain halothien-2-yl 5-nitrothiazol-2-yl ketones and fungicidal composition” (Schering Aktiengesellschaft, priority 1973, dated 1977).
Converted amounts (≈) assume the structure as drawn.

Legend:
Assay type in all cases: cell-based
Candida albicans = assay: minimum inhibitory concentration (MIC) against fungi, Cand. alb.
Source text: (§1) As examples of the effectiveness of the compounds of general Formula III against fungi, Table I indicates the minimum inhibitory concentrations (MIC) of several compounds. The comparison compounds are the known 2-Dimethylamino-6-(β-diethylaminoethoxy)-benzothiazole dihydrochloride and two 5-nitrothiazole derivatives substituted in the 2-position, which are known in the literature (J. Med. Chem. 12 [1969] 303).

[1] = test system: Trichophyton mentagrophytes; assay: minimum inhibitory concentration (MIC) against fungi, Trich. ment.
Source text: as §1

Trichophyton rubrum = assay: minimum inhibitory concentration (MIC) against fungi, Trich. rubr.
Source text: as §1

Row | SMILES | MIC (Candida albicans) [µg/mL] | MIC [1] [µg/mL] | MIC (Trichophyton rubrum) [µg/mL]
1 | CCOC(=N)c1ncc([N+](=O)[O-])s1 | 50 (≈ 249 µM) | 50 (≈ 249 µM) | 50 (≈ 249 µM)
2 | CCN(CC)CCOc1ccc2nc(N(C)C)sc2c1.Cl.Cl [2-Dimethylamino-6-(β-diethylaminoethoxy)-benzothiazole dihydrochloride] | 300 | 50 | 50
3 | Cc1ccc(C(=O)c2ncc([N+](=O)[O-])s2)c(F)c1C | 1.6 (≈ 5.71 µM) | 3.1 (≈ 11.1 µM) | 3.1 (≈ 11.1 µM)
4 | Cc1cc(C(=O)c2ncc([N+](=O)[O-])s2)c(C)c(C)c1O | 1.6 (≈ 5.47 µM) | 6.3 (≈ 21.6 µM) | 3.1 (≈ 10.6 µM)
5 | O=C(c1ccc(Br)s1)c1ncc([N+](=O)[O-])s1 | 0.4 (≈ 1.25 µM) | 1.6 (≈ 5.01 µM) | 1.6 (≈ 5.01 µM)
6 | CC(=O)NN=Cc1ncc([N+](=O)[O-])s1 | 25 (≈ 117 µM) | 12.5 (≈ 58.4 µM) | 12.5 (≈ 58.4 µM)
